Earlier results on one substance are cited in PMC5454779 (Biochemistry, 2011).

The data set concerns the target ssDNA. The conditions noted are these: read-out: Kd of cold shock protein A with ssDNA; single OB-fold; ref [9].

Take “cold shock protein A: cold shock protein consisting of a single OB-fold”: the dissociation constant (Kd) (usually the constant that tells how readily two partners part at equilibrium) is 6 µM.
